Key:
Format in all cases: biochemical
[1] = target: FAAH (Homo sapiens (Human), UniProt O00519); assay: In vitro competitive activity-based protein profiling, human proteomes (prefrontal cortex or PC3 cell membrane fractions); conditions: human proteome; for inhibition at 1 µM: read-out: FAAH % inh. 1 μM (human)
In short: (§1)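 Activity of MAGL and FAAH was quantified from fluorescent gel band intensities. Beforehand, inhibitors at several concentrations competed against subsequent probe labelling (FP-Rh, JW912 or HT-01) in species-matched proteomes, each step 30 min at 37° C.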

[2] = target: MAGL (Homo sapiens (Human), UniProt Q99685); assay: as above; conditions: human proteome; for inhibition at 1 µM: read-out: MAGL % inh. 1 μM (human)
In short: as §1

[3] = target: FAAH (Mus musculus (Mouse), UniProt O08914); assay: In vitro competitive activity-based protein profiling, mouse proteomes (brain membrane fraction or cell lysates); conditions: mouse proteome, read-out: FAAH % inh. 1 μM (mouse)
In short: as §1

[4] = target: MAGL (Mus musculus (Mouse), UniProt O35678); assay: as above; conditions: mouse proteome, read-out: MAGL % inh. 1 μM (mouse)
In short: as §1

MAGL (Homo sapiens (Human), UniProt Q99685), sequence (Q99685 whole entry): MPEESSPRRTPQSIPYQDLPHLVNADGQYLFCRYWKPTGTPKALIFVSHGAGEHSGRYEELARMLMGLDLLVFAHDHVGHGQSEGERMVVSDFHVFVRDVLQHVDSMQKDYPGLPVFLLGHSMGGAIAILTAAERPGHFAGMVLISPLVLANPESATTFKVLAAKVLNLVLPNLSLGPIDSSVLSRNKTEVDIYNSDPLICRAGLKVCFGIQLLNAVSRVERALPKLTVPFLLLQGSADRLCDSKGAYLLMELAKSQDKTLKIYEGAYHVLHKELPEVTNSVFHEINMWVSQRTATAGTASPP
MAGL (Mus musculus (Mouse), UniProt O35678), sequence (O35678 whole entry): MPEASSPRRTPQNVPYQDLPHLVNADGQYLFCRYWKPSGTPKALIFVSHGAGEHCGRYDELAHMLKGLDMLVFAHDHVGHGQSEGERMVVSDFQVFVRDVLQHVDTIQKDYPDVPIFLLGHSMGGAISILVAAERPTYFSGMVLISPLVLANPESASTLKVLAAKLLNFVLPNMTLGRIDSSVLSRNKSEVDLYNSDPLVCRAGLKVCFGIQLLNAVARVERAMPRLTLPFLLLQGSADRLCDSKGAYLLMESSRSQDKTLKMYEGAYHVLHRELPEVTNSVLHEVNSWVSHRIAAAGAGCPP
FAAH (Homo sapiens (Human), UniProt O00519), sequence (O00519 whole entry): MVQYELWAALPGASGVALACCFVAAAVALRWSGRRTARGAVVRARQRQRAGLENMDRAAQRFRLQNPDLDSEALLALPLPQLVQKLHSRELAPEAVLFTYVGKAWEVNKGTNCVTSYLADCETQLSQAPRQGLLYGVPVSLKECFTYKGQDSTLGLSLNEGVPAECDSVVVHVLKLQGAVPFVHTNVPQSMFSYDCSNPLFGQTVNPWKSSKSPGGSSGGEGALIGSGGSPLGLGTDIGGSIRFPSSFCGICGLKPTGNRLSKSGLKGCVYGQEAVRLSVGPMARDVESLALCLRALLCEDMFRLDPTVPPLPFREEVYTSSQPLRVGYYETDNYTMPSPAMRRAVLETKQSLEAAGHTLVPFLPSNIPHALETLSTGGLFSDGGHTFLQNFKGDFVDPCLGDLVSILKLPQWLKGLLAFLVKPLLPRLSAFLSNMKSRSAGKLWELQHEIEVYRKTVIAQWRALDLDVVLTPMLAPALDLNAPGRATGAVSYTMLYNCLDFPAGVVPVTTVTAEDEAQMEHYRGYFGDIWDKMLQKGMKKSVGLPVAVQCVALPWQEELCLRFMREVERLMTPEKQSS
FAAH (Mus musculus (Mouse), UniProt O08914), sequence (O08914 whole entry): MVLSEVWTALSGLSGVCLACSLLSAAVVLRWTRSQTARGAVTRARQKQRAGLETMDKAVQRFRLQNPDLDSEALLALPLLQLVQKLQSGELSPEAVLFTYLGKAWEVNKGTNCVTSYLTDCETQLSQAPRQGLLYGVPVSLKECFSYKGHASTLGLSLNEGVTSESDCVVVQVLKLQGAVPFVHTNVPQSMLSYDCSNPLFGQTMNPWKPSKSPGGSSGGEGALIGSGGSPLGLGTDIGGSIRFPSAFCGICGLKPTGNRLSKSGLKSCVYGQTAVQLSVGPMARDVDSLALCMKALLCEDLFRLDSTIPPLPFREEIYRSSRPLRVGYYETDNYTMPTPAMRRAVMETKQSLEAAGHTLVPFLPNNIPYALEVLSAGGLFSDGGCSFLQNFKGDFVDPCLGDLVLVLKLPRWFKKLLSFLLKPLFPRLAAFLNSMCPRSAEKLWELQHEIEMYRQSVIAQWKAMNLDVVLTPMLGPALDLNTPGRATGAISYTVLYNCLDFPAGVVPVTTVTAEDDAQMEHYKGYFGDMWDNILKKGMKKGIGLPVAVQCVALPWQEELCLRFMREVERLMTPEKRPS

Molecule `CC(=O)Nc1ccn(C(=O)N2CCC3(CCCN3C(=O)c3ccc(C#N)c(C)c3)CC2)n1` [Example 85, N-(1-(1-(4-Cyano-3-methylbenzoyl)-1,8-diazaspiro[4.5]decane-8-carbonyl)-1H-pyrazol-3-yl)acetamide] has an inhibition at 1 µM [1] of 0 to 25%, an inhibition at 1 µM [2] of over 75% and an inhibition at 1 µM [3] of 0 to 25%. The inhibition at 1 µM [4] was over 75%.
With `CS(=O)(=O)Nc1ccn(C(=O)N2CCN(Cc3ncccc3N3CCCC3)CC2)n1` [Example 86, N-(1-(4-((3-(Pyrrolidin-1-yl)pyridin-2-yl)methyl)piperazine-1-carbonyl)-1H-pyrazol-3-yl)methanesulfonamide] the inhibition at 1 µM [1] was 0 to 25%, the inhibition at 1 µM [2] was 25 to 50% and the inhibition at 1 µM [3] was 0 to 25%. It also gave an inhibition at 1 µM [4] of 25 to 50%.
With `CC1CN(C(=O)n2ccc(NS(C)(=O)=O)n2)CCN1Cc1ccc(C(F)(F)F)cc1N1CCCC1` (stereo not shown) [Example 88, N-(1-(3-Methyl-4-(2-(pyrrolidin-1-yl)-4-(trifluoromethyl)benzyl)piperazine-1-carbonyl)-1H-pyrazol-3-yl)methanesulfonamide] the inhibition at 1 µM [1] was 0 to 25%, the inhibition at 1 µM [2] was over 75% and the inhibition at 1 µM [3] was 0 to 25%. It also gave an inhibition at 1 µM [4] of over 75%.
In the case of `CS(=O)(=O)Nc1ccn(C(=O)N2CCN(Cc3ccc(C(F)(F)F)cc3S(=O)(=O)C3CC3)CC2)n1` [Example 89, N-(1-(4-(2-(Cyclopropylsulfonyl)-4-(trifluoromethyl)benzyl)piperazine-1-carbonyl)-1H-pyrazol-3-yl)methanesulfonamide], the inhibition at 1 µM [1] is reported as 0 to 25%, the inhibition at 1 µM [2] is reported as over 75% and the inhibition at 1 µM [3] is reported as 0 to 25%. It also gave an inhibition at 1 µM [4] of over 75%.
In the case of `CN(Cc1ccc(C(F)(F)F)nc1N1CCCC1)C1(C)CCN(C(=O)n2ccc(NS(C)(=O)=O)n2)CC1` [Example 91, N-(1-(4-Methyl-4-(methyl((2-(pyrrolidin-1-yl)-6-(trifluoromethyl)pyridin-3-yl)methyl)amino)piperidine-1-carbonyl)-1H-pyrazol-3-yl)methanesulfonamide], the inhibition at 1 µM [1] is reported as 25 to 50%, the inhibition at 1 µM [2] is reported as over 75% and the inhibition at 1 µM [3] is reported as 50 to 75%. It also gave an inhibition at 1 µM [4] of over 75%.
For `CS(=O)(=O)Nc1ccn(C(=O)N2CCC(Oc3ccc(C(F)(F)F)cc3N3C4CCC3COC4)CC2)n1` [Example 92, N-(1-(4-(2-(3-Oxa-8-azabicyclo[3.2.1]octan-8-yl)-4-(trifluoromethyl)phenoxy)piperidine-1-carbonyl)-1H-pyrazol-3-yl)methanesulfonamide], the inhibition at 1 µM [1] was 0 to 25%, the inhibition at 1 µM [2] was over 75% and the inhibition at 1 µM [3] was 0 to 25%. The inhibition at 1 µM [4] was over 75%.
Molecule `CS(=O)(=O)Nc1ccn(C(=O)N2CCC(Oc3ccc(C(F)(F)F)nc3N3CCCC3)CC2)n1` [Example 95, N-(1-(4-((2-(Pyrrolidin-1-yl)-6-(trifluoromethyl)pyridin-3-yl)oxy)piperidine-1-carbonyl)-1H-pyrazol-3-yl)methanesulfonamide] has an inhibition at 1 µM [1] of 0 to 25%, an inhibition at 1 µM [2] of over 75% and an inhibition at 1 µM [3] of 0 to 25%. For the same molecule, the inhibition at 1 µM [4] was over 75%.
`CN(Cc1ccc(C(F)(F)F)cc1N1CCC(C(=O)O)C1)C1(C)CCN(C(=O)n2ccc(NS(C)(=O)=O)n2)CC1` (stereo not shown) [Example 97, 1-(2-((Methyl(4-methyl-1-(3-(methylsulfonamido)-1H-pyrazole-1-carbonyl)piperidin-4-yl)amino)methyl)-5-(trifluoromethyl)phenyl)pyrrolidine-3-carboxylic acid] showed an inhibition at 1 µM [1] of 0 to 25%, an inhibition at 1 µM [2] of 25 to 50% and an inhibition at 1 µM [3] of 0 to 25%. The inhibition at 1 µM [4] was 25 to 50%.
In the case of `CS(=O)(=O)Nc1ccn(C(=O)N2CCC(Oc3ccc(C(F)(F)F)cc3NCC(=O)O)CC2)n1` [Example 99, (2-((1-(3-(Methylsulfonamido)-1H-pyrazole-1-carbonyl)piperidin-4-yl)oxy)-5-(trifluoromethyl)phenyl)glycine], the inhibition at 1 µM [1] is reported as 0 to 25%, the inhibition at 1 µM [2] is reported as over 75% and the inhibition at 1 µM [3] is reported as 0 to 25%. The inhibition at 1 µM [4] was over 75%.
`CS(=O)(=O)Nc1ccn(C(=O)N2CCC(Oc3ccc(C(F)(F)F)cc3N3CCCC3=O)CC2)n1` [Example 100, N-(1-(4-(2-(2-Oxopyrrolidin-1-yl)-4-(trifluoromethyl)phenoxy)piperidine-1-carbonyl)-1H-pyrazol-3-yl)methanesulfonamide] gave an inhibition at 1 µM [1] of 0 to 25%, an inhibition at 1 µM [2] of 50 to 75% and an inhibition at 1 µM [3] of 0 to 25%. For the same molecule, the inhibition at 1 µM [4] was 50 to 75%.
`CS(=O)(=O)Nc1ccn(C(=O)N2CCC(Oc3ccc(C(F)(F)F)cc3C(=O)N3CCCC3)CC2)n1` [Example 101, N-(1-(4-(2-(Pyrrolidine-1-carbonyl)-4-(trifluoromethyl)phenoxy)piperidine-1-carbonyl)-1H-pyrazol-3-yl)methanesulfonamide] showed an inhibition at 1 µM [1] of 0 to 25%, an inhibition at 1 µM [2] of over 75% and an inhibition at 1 µM [3] of 0 to 25%. It also gave an inhibition at 1 µM [4] of 50 to 75%.
Molecule `CN(Cc1ccc(C(F)(F)F)cc1NCC(=O)O)C1(C)CCN(C(=O)n2ccc(NS(C)(=O)=O)n2)CC1` [Example 102, (2-((Methyl(4-methyl-1-(3-(methylsulfonamido)-1H-pyrazole-1-carbonyl)piperidin-4-yl)amino)methyl)-5-(trifluoromethyl)phenyl)glycine] has an inhibition at 1 µM [1] of 0 to 25%, an inhibition at 1 µM [2] of 50 to 75% and an inhibition at 1 µM [3] of 0 to 25%. For the same molecule, the inhibition at 1 µM [4] was 0 to 25%.
Work on `CC(=O)Nc1ccn(C(=O)N2CCC3(CCCN3Cc3ccc(Cl)cc3OCCCC(=O)O)CC2)n1` [Example 105, 4-(2-((8-(3-Acetamido-1H-pyrazole-1-carbonyl)-1,8-diazaspiro[4.5]decan-1-yl)methyl)-5-chlorophenoxy)butanoic acid] yielded an inhibition at 1 µM [1] of 0 to 25%, an inhibition at 1 µM [2] of over 75% and an inhibition at 1 µM [3] of 0 to 25%. It also gave an inhibition at 1 µM [4] of over 75%.
For `CS(=O)(=O)Nc1ccn(C(=O)N2CCN(Cc3cc4cc(F)ccc4[nH]3)CC2)n1` [Example 107, N-(1-(4-((5-Fluoro-1H-indol-2-yl)methyl)piperazine-1-carbonyl)-1H-pyrazol-3-yl)methanesulfonamide], the inhibition at 1 µM [1] was 0 to 25%, the inhibition at 1 µM [2] was over 75% and the inhibition at 1 µM [3] was 0 to 25%. For the same molecule, the inhibition at 1 µM [4] was over 75%.
Work on `CS(=O)(=O)Nc1ccn(C(=O)N2CCC(Oc3ccc(C(F)(F)F)c(N4CCC(F)CC4)c3)CC2)n1` [Example 109, N-(1-(4-(3-(4-Fluoropiperidin-1-yl)-4-(trifluoromethyl)phenoxy)piperidine-1-carbonyl)-1H-pyrazol-3-yl)methanesulfonamide] yielded an inhibition at 1 µM [1] of 0 to 25%, an inhibition at 1 µM [2] of over 75% and an inhibition at 1 µM [3] of 0 to 25%. The inhibition at 1 µM [4] was over 75%.
With `CS(=O)(=O)Nc1ccn(C(=O)N2CCC(Oc3ccc(C(F)(F)F)c(OC4CCCC4)c3)CC2)n1` [Example 110, N-(1-(4-(3-(Cyclopentyloxy)-4-(trifluoromethyl)phenoxy)piperidine-1-carbonyl)-1H-pyrazol-3-yl)methanesulfonamide] the inhibition at 1 µM [1] was 0 to 25%, the inhibition at 1 µM [2] was over 75% and the inhibition at 1 µM [3] was 0 to 25%. The inhibition at 1 µM [4] was over 75%.
For `CS(=O)(=O)Nc1ccn(C(=O)N2CCN(Cc3ccc(Cl)c(OC4CCCC4)c3)CC2)n1` [Example 111, N-(1-(4-(4-Chloro-3-(cyclopentyloxy)benzyl)piperazine-1-carbonyl)-1H-pyrazol-3-yl)methanesulfonamide], the inhibition at 1 µM [1] was 0 to 25%, the inhibition at 1 µM [2] was over 75% and the inhibition at 1 µM [3] was 0 to 25%. For the same molecule, the inhibition at 1 µM [4] was over 75%.
For `CC(=O)Nc1ccn(C(=O)N2CC3CN(Cc4cccc(OC(F)(F)F)c4)CC3C2)n1` (stereo not shown) [Example 113, N-(1-(5-(3-(Trifluoromethoxy)benzyl)octahydropyrrolo[3,4-c]pyrrole-2-carbonyl)-1H-pyrazol-3-yl)acetamide], the inhibition at 1 µM [1] was 25 to 50%, the inhibition at 1 µM [2] was over 75% and the inhibition at 1 µM [3] was over 75%. For the same molecule, the inhibition at 1 µM [4] was over 75%.
Work on `CS(=O)(=O)Nc1ccn(C(=O)N2CC3CN(Cc4cccc(C(F)(F)F)c4)CC3C2)n1` (stereo not shown) [Example 114, N-(1-(5-(3-(Trifluoromethyl)benzyl)octahydropyrrolo[3,4-c]pyrrole-2-carbonyl)-1H-pyrazol-3-yl)methanesulfonamide] yielded an inhibition at 1 µM [1] of 25 to 50%, an inhibition at 1 µM [2] of over 75% and an inhibition at 1 µM [3] of over 75%. The inhibition at 1 µM [4] was 25 to 50%.
Molecule `CS(=O)(=O)Nc1ccn(C(=O)N2CC3CN(Cc4cccc(OC(F)(F)F)c4)CC3C2)n1` (stereo not shown) [Example 115, N-(1-(5-(3-(Trifluoromethoxy)benzyl)octahydropyrrolo[3,4-c]pyrrole-2-carbonyl)-1H-pyrazol-3-yl)methanesulfonamide] has an inhibition at 1 µM [1] of 25 to 50%, an inhibition at 1 µM [2] of over 75% and an inhibition at 1 µM [3] of over 75%. For the same molecule, the inhibition at 1 µM [4] was 25 to 50%.
`CS(=O)(=O)Nc1ccn(C(=O)N2CCN(Cc3ccc(C(F)(F)F)c(-c4nnco4)c3)CC2)n1` [Example 116, N-(1-(4-(3-(1,3,4-Oxadiazol-2-yl)-4-(trifluoromethyl)benzyl)piperazine-1-carbonyl)-1H-pyrazol-3-yl)methanesulfonamide] showed an inhibition at 1 µM [1] of 0 to 25%, an inhibition at 1 µM [2] of over 75% and an inhibition at 1 µM [3] of 0 to 25%. It also gave an inhibition at 1 µM [4] of 50 to 75%.
In the case of `CS(=O)(=O)Nc1ccn(C(=O)N2CCN(Cc3ccc(C(F)(F)F)c(N4CC[C@@H](F)C4)c3)CC2)n1` [Example 120, (R)-N-(1-(4-(3-(3-Fluoropyrrolidin-1-yl)-4-(trifluoromethyl)benzyl)piperazine-1-carbonyl)-1H-pyrazol-3-yl)methanesulfonamide], the inhibition at 1 µM [1] is reported as 0 to 25%, the inhibition at 1 µM [2] is reported as over 75% and the inhibition at 1 µM [3] is reported as 0 to 25%. For the same molecule, the inhibition at 1 µM [4] was over 75%.
Work on `CC(=O)Nc1ccn(C(=O)N2CC3CN(Cc4ccc(N5CCCC5)cc4C(F)(F)F)CC3C2)n1` (stereo not shown) [Example 121, N-(1-(5-(4-(Pyrrolidin-1-yl)-2-(trifluoromethyl)benzyl)octahydropyrrolo[3,4-c]pyrrole-2-carbonyl)-1H-pyrazol-3-yl)acetamide] yielded an inhibition at 1 µM [1] of over 75%, an IC50 [1] of 0.1 to 1 µM and an inhibition at 1 µM [2] of over 75%. It also gave an IC50 [2] of under 0.1 µM, an inhibition at 1 µM [3] of over 75% and an inhibition at 1 µM [4] of over 75%.
